Measured values reported in ChEMBL document CHEMBL4507297, “Data for DCP probe PF-04457845” (2021).

How the values were obtained:
[1] = target: Insulin receptor-related protein (Homo sapiens) (UniProt P14616); conditions: Compound concentration 1000.0 nM
[2] = target: Serine/threonine-protein kinase pim-2 (Homo sapiens) (UniProt Q9P1W9); conditions: Compound concentration 1000.0 nM
[3] = system: Epidermal growth factor receptor (Homo sapiens), P00533 [L861Q]; conditions: Compound concentration 1000.0 nM
[4] = target: Serine/threonine-protein kinase tousled-like 1 (Homo sapiens) (UniProt Q9UKI8); conditions: Compound concentration 1000.0 nM
[5] = target: Phosphatidylinositol 4,5-bisphosphate 3-kinase catalytic subunit gamma isoform (Homo sapiens) (UniProt P48736); conditions: Compound concentration 1000.0 nM
[6] = target: Serine/threonine-protein kinase D3 (Homo sapiens) (UniProt O94806); conditions: Compound concentration 1000.0 nM
[7] = target: Tyrosine-protein kinase receptor UFO (Homo sapiens) (UniProt P30530); conditions: Compound concentration 1000.0 nM
[8] = target: Cyclin-dependent kinase 18 (Homo sapiens) (UniProt Q07002); conditions: Compound concentration 1000.0 nM
[9] = system: Epidermal growth factor receptor (Homo sapiens), P00533 [UNDEFINED MUTATION]; conditions: Compound concentration 1000.0 nM
[10] = system: Phosphatidylinositol 4,5-bisphosphate 3-kinase catalytic subunit alpha isoform (Homo sapiens), P42336 [M1043I]; conditions: Compound concentration 1000.0 nM
[11] = target: Macrophage colony-stimulating factor 1 receptor (Homo sapiens) (UniProt P07333); conditions: Compound concentration 1000.0 nM
[12] = target: Mitogen-activated protein kinase kinase kinase 4 (Homo sapiens) (UniProt Q9Y6R4); conditions: Compound concentration 1000.0 nM
[13] = target: Bone morphogenetic protein receptor type-1B (Homo sapiens) (UniProt O00238); conditions: Compound concentration 1000.0 nM
[14] = target: Serine/threonine-protein kinase RIO2 (Homo sapiens) (UniProt Q9BVS4); conditions: Compound concentration 1000.0 nM
[15] = target: Cyclin-dependent kinase-like 1 (Homo sapiens) (UniProt Q00532); conditions: Compound concentration 1000.0 nM
[16] = target: Serine/threonine-protein kinase PAK 6 (Homo sapiens) (UniProt Q9NQU5); conditions: Compound concentration 1000.0 nM
[17] = target: Serine/threonine-protein kinase WNK4 (Homo sapiens) (UniProt Q96J92); conditions: Compound concentration 1000.0 nM
[18] = target: Phosphatidylinositol 4,5-bisphosphate 3-kinase catalytic subunit delta isoform (Homo sapiens) (UniProt O00329); conditions: Compound concentration 1000.0 nM
[19] = target: Serine/threonine-protein kinase pim-3 (Homo sapiens) (UniProt Q86V86); conditions: Compound concentration 1000.0 nM
[20] = target: Dual specificity protein kinase TTK (Homo sapiens) (UniProt P33981); conditions: Compound concentration 1000.0 nM
[21] = target: Serine/threonine-protein kinase PAK 5 (Homo sapiens) (UniProt Q9P286); conditions: Compound concentration 1000.0 nM
[22] = system: Phosphatidylinositol 4,5-bisphosphate 3-kinase catalytic subunit alpha isoform (Homo sapiens), P42336 [C420R]; conditions: Compound concentration 1000.0 nM
[23] = target: MAP/microtubule affinity-regulating kinase 4 (Homo sapiens) (UniProt Q96L34); conditions: Compound concentration 1000.0 nM
[24] = target: Mitogen-activated protein kinase kinase kinase kinase 4 (Homo sapiens) (UniProt O95819); conditions: Compound concentration 1000.0 nM
[25] = target: Ribosomal protein S6 kinase beta-1 (Homo sapiens) (UniProt P23443); conditions: Compound concentration 1000.0 nM
[26] = target: Sigma intracellular receptor 2 (Homo sapiens, UniProt Q5BJF2); conditions: Compound concentration 10.0 uM
[27] = target: Serine/threonine-protein kinase TBK1 (Homo sapiens) (UniProt Q9UHD2); conditions: Compound concentration 1000.0 nM
[28] = system: Mast/stem cell growth factor receptor Kit (Homo sapiens), P10721 [V559D,T670I]; conditions: Compound concentration 1000.0 nM
[29] = target: Epidermal growth factor receptor (Homo sapiens) (UniProt P00533); conditions: Compound concentration 1000.0 nM
[30] = target: SRSF protein kinase 3 (Homo sapiens) (UniProt Q9UPE1); conditions: Compound concentration 1000.0 nM
[31] = target: Serine/threonine-protein kinase ULK2 (Homo sapiens) (UniProt Q8IYT8); conditions: Compound concentration 1000.0 nM
[32] = target: Vascular endothelial growth factor receptor 2 (Homo sapiens) (UniProt P35968); conditions: Compound concentration 1000.0 nM
[33] = target: Mitogen-activated protein kinase kinase kinase 2 (Homo sapiens) (UniProt Q9Y2U5); conditions: Compound concentration 1000.0 nM
[34] = target: Ribosomal protein S6 kinase alpha-4 (Homo sapiens) (UniProt O75676); conditions: Compound concentration 1000.0 nM
[35] = target: Mitogen-activated protein kinase kinase kinase 12 (Homo sapiens) (UniProt Q12852); conditions: Compound concentration 1000.0 nM
[36] = system: Tyrosine-protein kinase ABL1 (Homo sapiens), P00519 [F317I]; conditions: Compound concentration 1000.0 nM
[37] = target: Serine/threonine-protein kinase 32A (Homo sapiens) (UniProt Q8WU08); conditions: Compound concentration 1000.0 nM
[38] = target: Casein kinase II subunit alpha' (Homo sapiens) (UniProt P19784); conditions: Compound concentration 1000.0 nM
[39] = target: Beta-2 adrenergic receptor (Homo sapiens) (UniProt P07550); conditions: Compound concentration 10.0 uM
[40] = target: Cyclin-dependent kinase 4 (Homo sapiens) (UniProt P11802); conditions: Compound concentration 1000.0 nM
[41] = target: Mitogen-activated protein kinase 6 (Homo sapiens) (UniProt Q16659); conditions: Compound concentration 1000.0 nM
[42] = target: Mitogen-activated protein kinase kinase kinase kinase 1 (Homo sapiens) (UniProt Q92918); conditions: Compound concentration 1000.0 nM
[43] = target: Death-associated protein kinase 1 (Homo sapiens) (UniProt P53355); conditions: Compound concentration 1000.0 nM
[44] = target: Vascular endothelial growth factor receptor 1 (Homo sapiens) (UniProt P17948); conditions: Compound concentration 1000.0 nM
[45] = target: Serine/threonine-protein kinase Nek6 (Homo sapiens) (UniProt Q9HC98); conditions: Compound concentration 1000.0 nM
Sequence of Serine/threonine-protein kinase Nek6 (Homo sapiens) (Q9HC98 whole entry): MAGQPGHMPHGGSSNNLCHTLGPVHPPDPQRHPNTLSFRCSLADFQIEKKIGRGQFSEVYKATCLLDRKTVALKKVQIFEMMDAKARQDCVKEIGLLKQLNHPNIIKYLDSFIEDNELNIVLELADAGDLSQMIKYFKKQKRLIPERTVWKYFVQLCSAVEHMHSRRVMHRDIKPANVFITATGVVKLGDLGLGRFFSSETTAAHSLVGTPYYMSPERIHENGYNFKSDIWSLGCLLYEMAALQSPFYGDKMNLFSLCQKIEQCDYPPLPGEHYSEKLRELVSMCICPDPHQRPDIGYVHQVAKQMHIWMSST

Sequence of Sigma intracellular receptor 2 (Q5BJF2 whole entry): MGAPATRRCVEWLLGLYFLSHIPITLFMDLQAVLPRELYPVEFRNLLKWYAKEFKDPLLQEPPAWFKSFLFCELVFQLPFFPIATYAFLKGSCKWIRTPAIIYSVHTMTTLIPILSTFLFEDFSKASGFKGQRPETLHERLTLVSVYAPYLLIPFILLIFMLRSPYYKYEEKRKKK
Sequence of Serine/threonine-protein kinase pim-2 (Homo sapiens) (Q9P1W9 whole entry, looked up): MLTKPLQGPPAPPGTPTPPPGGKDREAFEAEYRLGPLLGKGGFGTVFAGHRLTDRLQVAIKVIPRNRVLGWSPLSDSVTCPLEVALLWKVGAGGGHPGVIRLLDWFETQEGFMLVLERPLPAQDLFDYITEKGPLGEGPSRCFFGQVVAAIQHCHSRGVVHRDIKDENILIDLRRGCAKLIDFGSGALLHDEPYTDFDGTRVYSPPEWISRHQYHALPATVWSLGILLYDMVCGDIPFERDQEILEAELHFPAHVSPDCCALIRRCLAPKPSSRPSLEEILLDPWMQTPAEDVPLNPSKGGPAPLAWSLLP
Sequence of Death-associated protein kinase 1 (Homo sapiens) (P53355 whole entry, looked up): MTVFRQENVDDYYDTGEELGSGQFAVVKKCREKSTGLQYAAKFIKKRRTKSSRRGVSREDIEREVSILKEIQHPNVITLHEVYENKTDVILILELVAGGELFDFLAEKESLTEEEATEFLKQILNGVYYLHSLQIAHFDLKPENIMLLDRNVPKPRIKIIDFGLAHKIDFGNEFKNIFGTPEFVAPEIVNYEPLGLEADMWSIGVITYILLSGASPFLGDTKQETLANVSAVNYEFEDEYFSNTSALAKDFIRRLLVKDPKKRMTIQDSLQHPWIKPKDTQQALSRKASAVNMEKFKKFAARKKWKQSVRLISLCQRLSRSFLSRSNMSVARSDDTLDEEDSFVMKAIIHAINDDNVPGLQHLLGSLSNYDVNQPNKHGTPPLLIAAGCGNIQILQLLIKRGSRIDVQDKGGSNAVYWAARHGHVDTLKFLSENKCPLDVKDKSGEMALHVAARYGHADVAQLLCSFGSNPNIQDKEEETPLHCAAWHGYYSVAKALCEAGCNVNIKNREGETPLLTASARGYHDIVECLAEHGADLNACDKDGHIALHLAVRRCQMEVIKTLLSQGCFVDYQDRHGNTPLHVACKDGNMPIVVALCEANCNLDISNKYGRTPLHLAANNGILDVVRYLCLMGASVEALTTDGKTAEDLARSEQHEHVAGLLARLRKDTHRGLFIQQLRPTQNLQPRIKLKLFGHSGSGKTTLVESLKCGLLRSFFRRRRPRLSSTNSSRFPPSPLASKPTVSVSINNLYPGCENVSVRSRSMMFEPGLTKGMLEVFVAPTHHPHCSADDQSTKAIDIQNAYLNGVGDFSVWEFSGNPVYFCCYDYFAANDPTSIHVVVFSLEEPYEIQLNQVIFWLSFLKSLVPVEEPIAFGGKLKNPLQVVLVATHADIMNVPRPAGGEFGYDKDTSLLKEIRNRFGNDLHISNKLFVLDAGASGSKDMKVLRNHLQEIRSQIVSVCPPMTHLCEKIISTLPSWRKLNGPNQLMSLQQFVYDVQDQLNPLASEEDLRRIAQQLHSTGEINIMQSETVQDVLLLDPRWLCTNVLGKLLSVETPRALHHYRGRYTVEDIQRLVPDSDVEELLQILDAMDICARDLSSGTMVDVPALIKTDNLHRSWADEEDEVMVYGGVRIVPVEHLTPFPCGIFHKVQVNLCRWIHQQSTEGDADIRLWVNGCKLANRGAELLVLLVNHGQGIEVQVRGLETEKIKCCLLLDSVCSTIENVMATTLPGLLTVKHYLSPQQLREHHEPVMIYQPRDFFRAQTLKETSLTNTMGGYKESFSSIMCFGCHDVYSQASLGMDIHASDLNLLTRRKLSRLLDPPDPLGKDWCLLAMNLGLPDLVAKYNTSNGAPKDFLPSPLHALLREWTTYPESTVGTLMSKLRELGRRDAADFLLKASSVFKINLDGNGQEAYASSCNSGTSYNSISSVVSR
Sequence of Dual specificity protein kinase TTK (Homo sapiens) (P33981 whole entry): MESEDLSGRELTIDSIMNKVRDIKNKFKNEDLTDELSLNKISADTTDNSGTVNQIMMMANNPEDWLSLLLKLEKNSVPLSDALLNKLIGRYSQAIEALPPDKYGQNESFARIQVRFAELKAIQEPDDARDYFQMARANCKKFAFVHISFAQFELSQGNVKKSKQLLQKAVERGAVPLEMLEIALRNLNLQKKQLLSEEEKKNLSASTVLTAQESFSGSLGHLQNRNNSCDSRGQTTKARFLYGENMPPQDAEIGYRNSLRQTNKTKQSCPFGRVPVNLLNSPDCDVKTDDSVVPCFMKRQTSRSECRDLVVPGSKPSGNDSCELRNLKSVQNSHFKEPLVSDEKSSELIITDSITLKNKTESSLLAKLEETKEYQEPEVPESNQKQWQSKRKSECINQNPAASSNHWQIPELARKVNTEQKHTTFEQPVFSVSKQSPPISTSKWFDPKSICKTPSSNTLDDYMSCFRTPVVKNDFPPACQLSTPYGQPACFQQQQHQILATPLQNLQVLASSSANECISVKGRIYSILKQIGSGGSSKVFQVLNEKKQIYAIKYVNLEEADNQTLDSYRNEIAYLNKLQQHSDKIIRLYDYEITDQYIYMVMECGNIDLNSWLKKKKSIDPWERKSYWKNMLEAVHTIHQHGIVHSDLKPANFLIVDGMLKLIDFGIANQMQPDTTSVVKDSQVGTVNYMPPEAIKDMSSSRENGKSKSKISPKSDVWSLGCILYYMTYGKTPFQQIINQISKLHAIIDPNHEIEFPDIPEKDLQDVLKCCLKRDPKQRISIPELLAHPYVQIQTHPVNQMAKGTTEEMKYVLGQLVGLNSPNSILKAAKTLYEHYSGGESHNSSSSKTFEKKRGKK
Sequence of Beta-2 adrenergic receptor (Homo sapiens) (P07550 whole entry, looked up): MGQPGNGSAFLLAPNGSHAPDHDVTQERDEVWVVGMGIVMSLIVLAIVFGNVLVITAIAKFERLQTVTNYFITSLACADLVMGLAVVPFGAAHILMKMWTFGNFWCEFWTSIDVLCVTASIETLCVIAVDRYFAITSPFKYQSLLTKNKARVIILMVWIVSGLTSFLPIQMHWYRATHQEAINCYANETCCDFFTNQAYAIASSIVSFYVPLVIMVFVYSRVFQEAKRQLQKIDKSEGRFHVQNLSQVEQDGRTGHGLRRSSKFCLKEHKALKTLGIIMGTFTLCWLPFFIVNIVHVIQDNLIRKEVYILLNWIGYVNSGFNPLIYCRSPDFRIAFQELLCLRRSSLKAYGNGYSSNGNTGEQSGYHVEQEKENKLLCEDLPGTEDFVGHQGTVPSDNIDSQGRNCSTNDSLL
Sequence of Serine/threonine-protein kinase tousled-like 1 (Homo sapiens) (Q9UKI8 whole entry, canonical isoform): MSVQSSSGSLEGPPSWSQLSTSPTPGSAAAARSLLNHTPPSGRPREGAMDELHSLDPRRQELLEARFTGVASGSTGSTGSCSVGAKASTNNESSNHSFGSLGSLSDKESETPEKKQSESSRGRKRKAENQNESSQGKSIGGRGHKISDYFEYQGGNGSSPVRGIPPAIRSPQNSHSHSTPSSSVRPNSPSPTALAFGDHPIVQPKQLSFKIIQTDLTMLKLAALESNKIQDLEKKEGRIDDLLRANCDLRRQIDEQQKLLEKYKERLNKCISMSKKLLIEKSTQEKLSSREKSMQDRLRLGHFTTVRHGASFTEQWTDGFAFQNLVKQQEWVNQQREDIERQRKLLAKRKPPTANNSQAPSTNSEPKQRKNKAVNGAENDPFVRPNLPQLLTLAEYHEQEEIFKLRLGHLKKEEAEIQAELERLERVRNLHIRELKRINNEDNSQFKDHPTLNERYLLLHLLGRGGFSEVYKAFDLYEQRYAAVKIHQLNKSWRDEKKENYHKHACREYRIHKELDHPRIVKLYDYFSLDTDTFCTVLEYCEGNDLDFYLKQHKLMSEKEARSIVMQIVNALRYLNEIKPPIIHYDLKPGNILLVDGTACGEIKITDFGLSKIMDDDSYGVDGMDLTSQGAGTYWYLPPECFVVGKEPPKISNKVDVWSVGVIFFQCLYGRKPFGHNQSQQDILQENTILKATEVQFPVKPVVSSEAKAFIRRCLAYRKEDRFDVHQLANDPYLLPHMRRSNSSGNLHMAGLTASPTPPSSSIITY
Sequence of Serine/threonine-protein kinase 32A (Homo sapiens) (Q8WU08 whole entry): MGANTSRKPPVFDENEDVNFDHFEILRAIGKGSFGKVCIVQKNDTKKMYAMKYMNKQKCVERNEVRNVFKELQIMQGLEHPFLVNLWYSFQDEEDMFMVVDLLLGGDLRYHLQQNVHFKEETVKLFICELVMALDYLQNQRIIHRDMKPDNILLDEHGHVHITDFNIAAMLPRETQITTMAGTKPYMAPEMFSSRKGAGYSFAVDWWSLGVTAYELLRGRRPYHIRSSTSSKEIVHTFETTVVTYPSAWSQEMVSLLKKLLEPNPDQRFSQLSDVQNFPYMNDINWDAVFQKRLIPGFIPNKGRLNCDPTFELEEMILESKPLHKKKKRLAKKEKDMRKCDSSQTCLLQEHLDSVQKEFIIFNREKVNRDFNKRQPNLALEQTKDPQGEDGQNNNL

Q: How did the residual activity [1] turn out when `O=C(Nc1cccnn1)N1CC(C/C=C/c2cncc(Oc3ccc(C(F)(F)F)cn3)n2)C1` was run?
A: Its residual activity is 100%.

Q: And the residual activity [2]?
A: Its residual activity is 100%.

Q: And the residual activity [3]?
A: Its residual activity is 100%.

Q: And the residual activity [4]?
A: The residual activity was 98%.

Q: And the residual activity [5]?
A: The residual activity was 100%.

Q: What about the residual activity [6] of the same molecule?
A: The residual activity was 100%.

Q: And the residual activity [7]?
A: Its residual activity is 100%.

Q: And the residual activity [8]?
A: The residual activity was 100%.

Q: And the residual activity [9]?
A: The residual activity was 100%.

Q: And the residual activity [10]?
A: The residual activity was 100%.

Q: What about the residual activity [11] of the same molecule?
A: The residual activity was 100%.

Q: And the residual activity [12]?
A: The residual activity was 100%.

Q: And the residual activity [13]?
A: Its residual activity is 91%.

Q: And the residual activity [14]?
A: Its residual activity is 77%.

Q: And the residual activity [15]?
A: The residual activity was 100%.

Q: What about the residual activity [16] of the same molecule?
A: Its residual activity is 100%.

Q: And the residual activity [17]?
A: The residual activity was 0%.

Q: What about the residual activity [18] of the same molecule?
A: The residual activity was 64%.

Q: What about the residual activity [19] of the same molecule?
A: The residual activity was 100%.

Q: What about the residual activity [20] of the same molecule?
A: The residual activity was 100%.

Q: And the residual activity [21]?
A: The residual activity was 95%.

Q: What about the residual activity [22] of the same molecule?
A: The residual activity was 66%.

Q: What about the residual activity [23] of the same molecule?
A: The residual activity was 100%.

Q: And the residual activity [24]?
A: Its residual activity is 100%.

Q: And the residual activity [25]?
A: Its residual activity is 71%.

Q: And the inhibition [26]?
A: The inhibition was 69%.

Q: And the residual activity [27]?
A: Its residual activity is 72%.

Q: And the residual activity [28]?
A: Its residual activity is 100%.

Q: And the residual activity [29]?
A: Its residual activity is 99%.

Q: And the residual activity [30]?
A: The residual activity was 100%.

Q: And the residual activity [31]?
A: Its residual activity is 73%.

Q: And the residual activity [32]?
A: The residual activity was 64%.

Q: And the residual activity [33]?
A: The residual activity was 79%.

Q: What about the residual activity [34] of the same molecule?
A: The residual activity was 92%.

Q: And the residual activity [35]?
A: Its residual activity is 83%.

Q: What about the residual activity [36] of the same molecule?
A: Its residual activity is 53%.

Q: And the residual activity [37]?
A: Its residual activity is 100%.

Q: And the residual activity [38]?
A: Its residual activity is 100%.

Q: What about the inhibition [39] of the same molecule?
A: The inhibition was 16.8%.

Q: And the residual activity [40]?
A: The residual activity was 75%.

Q: What about the residual activity [41] of the same molecule?
A: The residual activity was 100%.

Q: And the residual activity [42]?
A: The residual activity was 98%.

Q: What about the residual activity [43] of the same molecule?
A: The residual activity was 98%.

Q: And the residual activity [44]?
A: The residual activity was 100%.

Q: And the residual activity [45]?
A: Its residual activity is 100%.

Q: For `O=C(Nc1cccnn1)N1CCC(=Cc2cccc(Oc3ccc(C(F)(F)F)cn3)c2)CC1`, which residual activity [1] is on record?
A: The residual activity was 100%.

Q: And the residual activity [2]?
A: Its residual activity is 97%.

Q: What about the residual activity [3] of the same molecule?
A: The residual activity was 84%.

Q: And the residual activity [4]?
A: Its residual activity is 100%.

Q: And the residual activity [5]?
A: Its residual activity is 100%.

Q: What about the residual activity [6] of the same molecule?
A: The residual activity was 83%.

Q: What about the residual activity [7] of the same molecule?
A: Its residual activity is 100%.

Q: What about the residual activity [8] of the same molecule?
A: The residual activity was 76%.

Q: And the residual activity [9]?
A: The residual activity was 69%.

Q: What about the residual activity [10] of the same molecule?
A: The residual activity was 65%.

Q: What about the residual activity [11] of the same molecule?
A: Its residual activity is 95%.

Q: What about the residual activity [12] of the same molecule?
A: The residual activity was 100%.

Q: What about the residual activity [13] of the same molecule?
A: Its residual activity is 88%.

Q: And the residual activity [14]?
A: The residual activity was 100%.

Q: And the residual activity [15]?
A: Its residual activity is 86%.

Q: What about the residual activity [16] of the same molecule?
A: The residual activity was 100%.

Q: What about the residual activity [17] of the same molecule?
A: Its residual activity is 96%.

Q: And the residual activity [18]?
A: The residual activity was 81%.

Q: What about the residual activity [19] of the same molecule?
A: The residual activity was 79%.

Q: What about the residual activity [20] of the same molecule?
A: Its residual activity is 100%.

Q: And the residual activity [21]?
A: The residual activity was 100%.

Q: What about the residual activity [22] of the same molecule?
A: Its residual activity is 100%.

Q: What about the residual activity [23] of the same molecule?
A: Its residual activity is 76%.

Q: What about the residual activity [24] of the same molecule?
A: The residual activity was 100%.

Q: What about the residual activity [25] of the same molecule?
A: The residual activity was 100%.

Q: And the inhibition [26]?
A: Its inhibition is 91.3%.

Q: What about the residual activity [27] of the same molecule?
A: Its residual activity is 100%.

Q: And the residual activity [28]?
A: The residual activity was 96%.

Q: What about the residual activity [29] of the same molecule?
A: Its residual activity is 100%.

Q: And the residual activity [30]?
A: Its residual activity is 81%.

Q: What about the residual activity [31] of the same molecule?
A: Its residual activity is 100%.

Q: And the residual activity [32]?
A: The residual activity was 88%.

Q: What about the residual activity [33] of the same molecule?
A: The residual activity was 100%.

Q: And the residual activity [34]?
A: The residual activity was 100%.

Q: What about the residual activity [35] of the same molecule?
A: Its residual activity is 100%.

Q: And the residual activity [36]?
A: The residual activity was 100%.

Q: And the residual activity [37]?
A: The residual activity was 100%.

Q: What about the residual activity [38] of the same molecule?
A: The residual activity was 100%.

Q: And the inhibition [39]?
A: The inhibition was 0.51%.

Q: What about the residual activity [40] of the same molecule?
A: Its residual activity is 100%.

Q: What about the residual activity [41] of the same molecule?
A: The residual activity was 90%.

Q: What about the residual activity [42] of the same molecule?
A: The residual activity was 80%.

Q: What about the residual activity [43] of the same molecule?
A: The residual activity was 100%.

Q: And the residual activity [44]?
A: The residual activity was 100%.

Q: And the residual activity [45]?
A: Its residual activity is 100%.
